Measured values: patent US20240216396A1, “NEUROACTIVE STEROID FOR USE IN TREATING MAJOR DEPRESSIVE DISORDER AND […] A LACTATING FEMALE” (Sage Therapeutics, Inc., priority 2021, published 2024)

Columns and labels:
[1] = Safety and tolerability in healthy lactating participants; assay type: in vivo, human
Excerpt: (§1) Compound (1) is an investigational, synthetic, oral neuroactive steroid under investigation as a once-daily therapy for major depressive disorder and postpartum depression. This open-label study evaluated the extent of Compound (1) transfer into breast milk, breast milk production (volume), pharmacokinetics (PK), plasma protein binding, safety, and tolerability in healthy lactating participants.
(§2) Healthy volunteers (N=15) aged 18-45 years, >12 weeks postpartum, actively lactating, and pumping or breast feeding ≥3 times per day orally self-administered Compound (1) 30 mg once-daily with food for 5 days. Breast milk was collected from Day −3 through Day 12. Blood samples for PK and plasma protein binding analysis were collected predose (Day 1), on Days 5-6, and during follow-up (Days 7, 9, and 12). The relationship between plasma and breast milk concentrations was examined with population PK modeling.

[2] = Open-label study: transfer of Compound (1) into breast milk of healthy lactating women; assay type: in vivo, human
Excerpt: as §1, §2

plasma protein = experiment: Plasma protein binding analysis of blood samples from healthy lactating participants; assay type: in vitro ADME; conditions: female, human, across participants, 30 mg once-daily oral with food for 5 days, read-out: free fraction in plasma (plasma protein binding)
Excerpt: as §1, §2

[3] = Breast milk production (volume) in healthy lactating participants; assay type: in vivo, human; conditions: 30 mg once-daily oral for 5 days; inter-participant variability noted
Excerpt: as §1, §2

[4] = Population PK modeling of the relationship between plasma and breast milk concentrations; assay type: in vivo, human
Experimental: as §2

[5] = tested on: synaptic and extrasynaptic GABAA receptors; conditions: cited from earlier work

With `C[C@@]1(O)CC[C@H]2[C@H](CC[C@@H]3[C@@H]2CC[C@]2(C)[C@@H](C(=O)Cn4cc(C#N)cn4)CC[C@@H]32)C1` [Compound (1), 1-(2-((3R,5R,8R,9R,10S,13S,14S,17S)-3-hydroxy-3,13-dimethylhexadecahydro-1H-cyclopenta[a]phenanthren-17-yl)-2-oxoethyl)-1H-pyrazole-4-carbonitrile] the tolerability ([1]; 30 mg for 5 days, healthy lactating participants) was “well-tolerated”, the adverse events reported ([1]; 30 mg once-daily oral for 5 days, N=15) was “No deaths, serious adverse events, moderate or severe treatment-emergent adverse events (TEAEs), or TEAEs leading to discontinuation or study withdrawal were reported” and the “breast milk concentration relative to plasma concentration” value ([2]; 30 mg once-daily for 5 days) was “approximately one-half”. For the same molecule, the daily infant dose ([2]; Day 5, 30 mg once-daily oral for 5 days) was 0.00125 mg/kg/day, the “estimated mean relative infant dose (RID)” value ([2]; Day 5, 30 mg once-daily oral for 5 days, compared to maternal dose) was 0.357% and the fraction unbound (plasma protein) was ≤ 0.0052. For the same molecule, the “decrease of volume of milk collected from baseline” value [3] was 8.3%, the Kp ([4]; female, human, breast milk/plasma, oral, 30 mg, constant, population PK modeling, read-out: partition coefficient between milk and plasma) was 0.501 and the “relationship of plasma concentrations with time or collected milk volume” value ([4]; in vivo) was “no apparent relationship”. For the same molecule, the “between-subject variability in milk/plasma partitioning” value ([4]; population PK modeling) was 23% and the “action on GABAA receptors” value [5] was “positive allosteric modulator”.
